In patent publication US20110313046A1, “COMBINATION THERAPY WITH LISDEXAMPHETAMINE AND EXTENDED RELEASE GUANFACINE” (priority 2010, published 2011):
Read-outs that look alike come from different tables or passages of the source.

How the values were obtained:
CYP450 system = conditions: cited from earlier work
[1] = d-Amphetamine plasma pharmacokinetics, crossover drug-drug interaction study; assay type: in vivo, healthy adults
Method: (§1) An open-label, randomized, single-center, 3-period, crossover, drug-drug interaction study in 42 healthy adults (18-45 years old) was performed. Subjects received three single, oral dose treatments: 4 mg extended release guanfacine, 50 mg lisdexamphetmaine, and 4 mg extended release guanfacine in combination with 50 mg lisdexamphetmaine. Subjects underwent the three treatment periods with a 7-day washout between each treatment.

[2] = Lisdexamphetamine plasma pharmacokinetics, crossover drug-drug interaction study; assay type: in vivo, healthy adults; parameters: lisdexamphetamine plasma concentration, Mean / lisdexamphetamine plasma concentration, Median / lisdexamphetamine plasma concentration, Min / lisdexamphetamine plasma concentration, Max: unit not given here; conditions: for AUC / AUC(0-t) / Cmax / Tmax / Vd/F / CL/F: po, 50 mg
Method: as §1

[3] = Adverse events and safety, crossover drug-drug interaction study; assay type: in vivo, healthy adults; conditions: TEAEs by treatment; single oral dose (SPD503 4 mg, VYVANSE 50 mg)
Method: A “treatment-emergent adverse event” (TEAE) is an AE that occurred or worsened during the on-treatment period.
A “non-treatment-emergent adverse event” is an AE that occurred during the pre-treatment period or the post-treatment period.
as §1

CYP3A4 = CYP3A4 (Homo sapiens, UniProt P08684); conditions: cited from earlier work
[4] = Guanfacine plasma pharmacokinetics, crossover drug-drug interaction study; parameters: species or system healthy adults; conditions: human, in vivo
Method: as §1

[5] = young intact rhesus monkeys; cited from earlier work
[6] = single oral dose 50 mg, weight normalized
[7] = time 0.5, single oral dose 50 mg
[8] = time 1.5, single oral dose 50 mg
[9] = time 12, single oral dose 50 mg
[10] = time 24, single oral dose 50 mg
[11] = time 30, single oral dose 50 mg
[12] = time 48, single oral dose 50 mg
[13] = time 72, single oral dose 50 mg

CYP3A4, sequence (P08684 whole entry, species assumed): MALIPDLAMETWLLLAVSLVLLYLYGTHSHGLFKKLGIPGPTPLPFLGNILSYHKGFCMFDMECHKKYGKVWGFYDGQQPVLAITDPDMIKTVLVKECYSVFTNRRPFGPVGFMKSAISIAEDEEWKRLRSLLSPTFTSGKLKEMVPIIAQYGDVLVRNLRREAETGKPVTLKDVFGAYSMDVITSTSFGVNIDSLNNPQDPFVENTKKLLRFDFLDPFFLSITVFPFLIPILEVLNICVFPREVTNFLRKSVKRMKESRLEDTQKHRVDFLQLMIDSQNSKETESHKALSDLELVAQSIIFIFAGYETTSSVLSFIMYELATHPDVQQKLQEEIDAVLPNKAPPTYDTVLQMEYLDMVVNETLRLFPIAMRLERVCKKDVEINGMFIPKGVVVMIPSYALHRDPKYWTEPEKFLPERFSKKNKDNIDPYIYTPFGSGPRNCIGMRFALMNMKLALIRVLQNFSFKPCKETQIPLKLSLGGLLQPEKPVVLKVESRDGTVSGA

SMILES: C[C@@H](Cc1ccccc1)NC(=O)[C@@H](N)CCCCN [VYVANSE Alone, lisdexamphetamine dimesylate]
- induction or inhibition of the CYP450 system (CYP450 system): neither an inducer nor inhibitor
- metabolism by the CYP450 system (CYP450 system): not metabolized by the CYP450 system
- mean d-amphetamine plasma concentrations, alone compared with co-administration ([1]; FIG. 2): essentially identical
- weight normalized CL/F, alone compared with combination ([1]; between the two treatments): essentially the same
- mean lisdexamphetamine plasma concentrations, alone compared with co-administration ([2]; FIG. 3): essentially identical
- AUC ([2]; human, plasma, single oral dose 50 mg, read-out: lisdexamphetamine AUCinfo, Geo Mean): 32.4 ng·h/mL
- AUC ([2]; human, plasma, single oral dose 50 mg, read-out: lisdexamphetamine AUCinfo, Mean): 36.1 ng·h/mL
- AUC ([2]; human, plasma, single oral dose 50 mg, read-out: lisdexamphetamine AUCinfo, Median): 33.2 ng·h/mL
- AUC(0-t) ([2]; human, plasma, single oral dose 50 mg, read-out: lisdexamphetamine AUClast, Geo Mean): 28.3 ng·h/mL
- AUC(0-t) ([2]; human, plasma, single oral dose 50 mg, read-out: lisdexamphetamine AUClast, Mean): 32.1 ng·h/mL
- AUC(0-t) ([2]; human, plasma, single oral dose 50 mg, read-out: lisdexamphetamine AUClast, Median): 27.2 ng·h/mL
- Cmax ([2]; human, plasma, single oral dose 50 mg, read-out: lisdexamphetamine Cmax, Geo Mean): 22.5 ng/mL
- Cmax ([2]; human, plasma, single oral dose 50 mg, read-out: lisdexamphetamine Cmax, Mean): 26.1 ng/mL
- Cmax ([2]; human, plasma, single oral dose 50 mg, read-out: lisdexamphetamine Cmax, Median): 25.2 ng/mL
- Tmax ([2]; human, plasma, single oral dose 50 mg, read-out: lisdexamphetamine Tmax, Geo Mean): 1.1 h
- Tmax ([2]; human, plasma, single oral dose 50 mg, read-out: lisdexamphetamine Tmax, Mean): 1.1 h
- Tmax ([2]; human, plasma, single oral dose 50 mg, read-out: lisdexamphetamine Tmax, Median): 1 h
- Vd/F ([2]; human, plasma, single oral dose 50 mg, read-out: lisdexamphetamine VZ/F, Geo Mean): 1090 L
- Vd/F ([2]; human, plasma, single oral dose 50 mg, read-out: lisdexamphetamine VZ/F, Mean): 1270 L
- Vd/F ([2]; human, plasma, single oral dose 50 mg, read-out: lisdexamphetamine VZ/F, Median): 1040 L
- CL/F ([2]; human, plasma, single oral dose 50 mg, weight normalized, read-out: lisdexamphetamine CL/F, Geo Mean (converted)): 339 mL/min/kg
- CL/F ([2]; human, plasma, single oral dose 50 mg, weight normalized, read-out: lisdexamphetamine CL/F, Mean (converted)): 362 mL/min/kg
- CL/F ([2]; human, plasma, single oral dose 50 mg, weight normalized, read-out: lisdexamphetamine CL/F, Median (converted)): 345 mL/min/kg
- Vd/F ([2]; human, plasma, single oral dose 50 mg, weight normalized, read-out: lisdexamphetamine VZ/F, Geo Mean): 14.4 L/kg
- Vd/F ([2]; human, plasma, single oral dose 50 mg, weight normalized, read-out: lisdexamphetamine VZ/F, Mean): 16 L/kg
- Vd/F ([2]; human, plasma, single oral dose 50 mg, weight normalized, read-out: lisdexamphetamine VZ/F, Median): 13.7 L/kg
- half-life ([2]; human, plasma, single oral dose 50 mg, read-out: lisdexamphetamine T1/2, Mean (converted)): 0.5 h
- lisdexamphetamine AUCinfo, Max ([2]; single oral dose 50 mg): 95.6 ng·h/mL
- lisdexamphetamine AUCinfo, Min ([2]; single oral dose 50 mg): 14.2 ng·h/mL
- lisdexamphetamine AUClast, Max ([2]; single oral dose 50 mg): 94.3 ng·h/mL
- lisdexamphetamine AUClast, Min ([2]; single oral dose 50 mg): 10.2 ng·h/mL
- lisdexamphetamine CL/F, Geo Mean ([2]; single oral dose 50 mg): 1543 L/h
- lisdexamphetamine CL/F, Max ([2]; single oral dose 50 mg): 3523.94 L/h
- lisdexamphetamine CL/F, Mean ([2]; single oral dose 50 mg): 1701.28 L/h
- lisdexamphetamine CL/F, Median ([2]; single oral dose 50 mg): 1504.94 L/h
- lisdexamphetamine CL/F, Min ([2]; single oral dose 50 mg): 522.89 L/h
- lisdexamphetamine Cmax, Max ([2]; single oral dose 50 mg): 82.37 ng/mL
- lisdexamphetamine Cmax, Min ([2]; single oral dose 50 mg): 5.87 ng/mL
- lisdexamphetamine T1/2, Geo Mean ([2]; single oral dose 50 mg): 0.5 h
- lisdexamphetamine T1/2, Max ([2]; single oral dose 50 mg): 0.8 h
- lisdexamphetamine T1/2, Min ([2]; single oral dose 50 mg): 0.3 h
- lisdexamphetamine Tmax, Max ([2]; single oral dose 50 mg): 1.5 h
- lisdexamphetamine Tmax, Min ([2]; single oral dose 50 mg): 1 h
- lisdexamphetamine CL/F, Max [2, 6]: 660.7 mL/min/kg
- lisdexamphetamine CL/F, Min [2, 6]: 115 mL/min/kg
- lisdexamphetamine plasma concentration, Max ([2]; time 0, single oral dose 50 mg): 0
- lisdexamphetamine plasma concentration, Mean ([2]; time 0, single oral dose 50 mg): 0
- lisdexamphetamine plasma concentration, Median ([2]; time 0, single oral dose 50 mg): 0
- lisdexamphetamine plasma concentration, Min ([2]; time 0, single oral dose 50 mg): 0
- lisdexamphetamine plasma concentration, Max [2, 7]: 54.99
- lisdexamphetamine plasma concentration, Mean [2, 7]: 8.5483
- lisdexamphetamine plasma concentration, Median [2, 7]: 4.51
- lisdexamphetamine plasma concentration, Min [2, 7]: 0
- lisdexamphetamine plasma concentration, Max ([2]; time 1, single oral dose 50 mg): 82.37
- lisdexamphetamine plasma concentration, Mean ([2]; time 1, single oral dose 50 mg): 24.921
- lisdexamphetamine plasma concentration, Median ([2]; time 1, single oral dose 50 mg): 23.56
- lisdexamphetamine plasma concentration, Min ([2]; time 1, single oral dose 50 mg): 4.5
- lisdexamphetamine plasma concentration, Max [2, 8]: 41.42
- lisdexamphetamine plasma concentration, Mean [2, 8]: 17.7205
- lisdexamphetamine plasma concentration, Median [2, 8]: 15.72
- lisdexamphetamine plasma concentration, Min [2, 8]: 5.87
- lisdexamphetamine plasma concentration, Max ([2]; time 2, single oral dose 50 mg): 19.94
- lisdexamphetamine plasma concentration, Mean ([2]; time 2, single oral dose 50 mg): 9.0166
- lisdexamphetamine plasma concentration, Median ([2]; time 2, single oral dose 50 mg): 8.17
- lisdexamphetamine plasma concentration, Min ([2]; time 2, single oral dose 50 mg): 2.42
- lisdexamphetamine plasma concentration, Max ([2]; time 3, single oral dose 50 mg): 6.32
- lisdexamphetamine plasma concentration, Mean ([2]; time 3, single oral dose 50 mg): 1.8902
- lisdexamphetamine plasma concentration, Median ([2]; time 3, single oral dose 50 mg): 1.87
- lisdexamphetamine plasma concentration, Min ([2]; time 3, single oral dose 50 mg): 0
- lisdexamphetamine plasma concentration, Max ([2]; time 4, single oral dose 50 mg): 2.28
- lisdexamphetamine plasma concentration, Mean ([2]; time 4, single oral dose 50 mg): 0.2849
- lisdexamphetamine plasma concentration, Median ([2]; time 4, single oral dose 50 mg): 0
- lisdexamphetamine plasma concentration, Min ([2]; time 4, single oral dose 50 mg): 0
- lisdexamphetamine plasma concentration, Max ([2]; time 6, single oral dose 50 mg): 0
- lisdexamphetamine plasma concentration, Mean ([2]; time 6, single oral dose 50 mg): 0
- lisdexamphetamine plasma concentration, Median ([2]; time 6, single oral dose 50 mg): 0
- lisdexamphetamine plasma concentration, Min ([2]; time 6, single oral dose 50 mg): 0
- lisdexamphetamine plasma concentration, Max ([2]; time 8, single oral dose 50 mg): 0
- lisdexamphetamine plasma concentration, Mean ([2]; time 8, single oral dose 50 mg): 0
- lisdexamphetamine plasma concentration, Median ([2]; time 8, single oral dose 50 mg): 0
- lisdexamphetamine plasma concentration, Min ([2]; time 8, single oral dose 50 mg): 0
- lisdexamphetamine plasma concentration, Max [2, 9]: 0
- lisdexamphetamine plasma concentration, Mean [2, 9]: 0
- lisdexamphetamine plasma concentration, Median [2, 9]: 0
- lisdexamphetamine plasma concentration, Min [2, 9]: 0
- lisdexamphetamine plasma concentration, Max [2, 10]: 0
- lisdexamphetamine plasma concentration, Mean [2, 10]: 0
- lisdexamphetamine plasma concentration, Median [2, 10]: 0
- lisdexamphetamine plasma concentration, Min [2, 10]: 0
- lisdexamphetamine plasma concentration, Max [2, 11]: 0
- lisdexamphetamine plasma concentration, Mean [2, 11]: 0
- lisdexamphetamine plasma concentration, Median [2, 11]: 0
- lisdexamphetamine plasma concentration, Min [2, 11]: 0
- lisdexamphetamine plasma concentration, Max [2, 12]: 0
- lisdexamphetamine plasma concentration, Mean [2, 12]: 0
- lisdexamphetamine plasma concentration, Median [2, 12]: 0
- lisdexamphetamine plasma concentration, Min [2, 12]: 0
- lisdexamphetamine plasma concentration, Max [2, 13]: 0
- lisdexamphetamine plasma concentration, Mean [2, 13]: 0
- lisdexamphetamine plasma concentration, Median [2, 13]: 0
- lisdexamphetamine plasma concentration, Min [2, 13]: 0
- TEAE: Any Event [3]: 8 (19.5) n (%)
- TEAE: Arrhythmia supraventricular [3]: 1 (2.4) n (%)
- TEAE: Cardiac disorders [3]: 3 (7.3) n (%)
- TEAE: Diarrhoea [3]: 0 (0.0) n (%)
- TEAE: Dizziness [3]: 3 (7.3) n (%)
- TEAE: Dizziness postural [3]: 1 (2.4) n (%)
- TEAE: Dry mouth [3]: 1 (2.4) n (%)
- TEAE: Dysmenorrhoea [3]: 1 (2.4) n (%)
- TEAE: Flushing [3]: 0 (0.0) n (%)
- TEAE: Gastrointestinal disorders [3]: 2 (4.9) n (%)
- TEAE: General disorders and administration site conditions [3]: 0 (0.0) n (%)
- TEAE: Headache [3]: 2 (4.9) n (%)
- TEAE: Nausea [3]: 1 (2.4) n (%)
- TEAE: Nervous system disorders [3]: 4 (9.8) n (%)
- TEAE: Nervousness [3]: 2 (4.9) n (%)
- TEAE: Non-cardiac chest pain [3]: 0 (0.0) n (%)
- TEAE: Orthostatic hypotension [3]: 0 (0.0) n (%)
- TEAE: Palpitations [3]: 1 (2.4) n (%)
- TEAE: Paraesthesia [3]: 0 (0.0) n (%)
- TEAE: Psychiatric disorders [3]: 2 (4.9) n (%)
- TEAE: Psychomotor hyperactivity [3]: 1 (2.4) n (%)
- TEAE: Reproductive system and breast disorders [3]: 1 (2.4) n (%)
- TEAE: Supraventricular extrasystoles [3]: 0 (0.0) n (%)
- TEAE: Tachycardia [3]: 1 (2.4) n (%)
- TEAE: Vascular disorders [3]: 0 (0.0) n (%)
- TEAE: Wandering pacemaker [3]: 1 (2.4) n (%)

SMILES: Cl.N=C(N)NC(=O)Cc1c(Cl)cccc1Cl [guanfacine]
- metabolism by CYP3A4 (CYP3A4): known to be metabolized by CYP3A4
- guanfacine Cmax in combination compared with alone [4]: higher than when administered alone
- delayed response performance [5]: can be improved
